Assay results as given in ChEMBL document CHEMBL1149437, “1-Alkyl-benzotriazole-5-carboxylic acids are highly selective agonists of the human orphan G-protein-coupled receptor GPR109b” (J Med Chem, 2006).
Active and inactive are the calls of the source. The calls are words filed in the database; no cut-off is given here.

How the values were obtained:
[1] = biological target: Hydroxycarboxylic acid receptor 3 (Homo sapiens, UniProt P49019); assay: Agonistic activity at GPR109b by cAMP whole cell assay; assay type: functional
Hydroxycarboxylic acid receptor 3, sequence (P49019 whole entry): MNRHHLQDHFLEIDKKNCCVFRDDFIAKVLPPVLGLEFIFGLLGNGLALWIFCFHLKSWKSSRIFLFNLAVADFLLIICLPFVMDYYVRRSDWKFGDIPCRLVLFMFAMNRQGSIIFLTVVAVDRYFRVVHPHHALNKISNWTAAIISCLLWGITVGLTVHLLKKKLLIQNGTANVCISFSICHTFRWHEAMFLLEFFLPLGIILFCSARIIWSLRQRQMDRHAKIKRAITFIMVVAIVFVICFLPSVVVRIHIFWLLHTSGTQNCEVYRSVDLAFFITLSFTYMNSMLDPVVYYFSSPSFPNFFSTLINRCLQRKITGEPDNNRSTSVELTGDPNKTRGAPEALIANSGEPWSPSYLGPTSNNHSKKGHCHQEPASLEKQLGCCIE

[2] = biological target: Hydroxycarboxylic acid receptor 2 (Mus musculus) (UniProt Q9EP66); assay: Activity against GPR109a upto 100 uM; assay type: functional
Hydroxycarboxylic acid receptor 2 (Mus musculus), sequence (Q9EP66 whole entry): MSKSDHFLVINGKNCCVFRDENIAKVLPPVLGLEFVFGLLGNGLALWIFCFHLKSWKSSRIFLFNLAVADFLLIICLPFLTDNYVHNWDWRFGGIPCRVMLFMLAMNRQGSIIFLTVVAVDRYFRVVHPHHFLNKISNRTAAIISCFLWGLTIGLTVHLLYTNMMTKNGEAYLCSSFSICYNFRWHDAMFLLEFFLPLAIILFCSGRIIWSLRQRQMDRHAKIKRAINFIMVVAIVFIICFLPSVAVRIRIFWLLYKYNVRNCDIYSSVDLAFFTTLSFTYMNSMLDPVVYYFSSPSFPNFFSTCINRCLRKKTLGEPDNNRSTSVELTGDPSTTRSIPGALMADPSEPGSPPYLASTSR

[3] = biological target: Adrenergic receptor beta (Homo sapiens) (UniProt P08588+P07550+P13945); assay: Activity against beta adrenergic receptor; assay type: protein assay

O=C(O)c1ccc2c(c1)nnn2CC1CC1
Log EC50 [1]: inactive | Activity [2]: inactive

COCCn1nnc2cc(C(=O)O)ccc21
EC50 [1]: 316 nM | Activity [2]: inactive

CCC(CC)n1nnc2cc(C(=O)O)ccc21
EC50 [1]: 3020 nM | Activity [2]: inactive

CC(C)n1nnc2cc(-c3nn[nH]n3)ccc21
Log EC50 [1]: inactive | Activity [2]: inactive

O=C(O)c1ccc2c(c1)nnn2C1CC1
EC50 [1]: 2340 nM | Activity [2]: inactive

CCC(C)n1nnc2cc(C(=O)O)ccc21 (centres undefined)
EC50 [1]: 331 nM | Activity [2]: inactive

COc1ccc(Cn2nnc3cc(C(=O)O)ccc32)cc1
Log EC50 [1]: inactive | Activity [2]: inactive

O=C(O)c1ccc2c(c1)nnn2C(c1ccccc1)c1ccccc1
EC50 [1]: > 10000 nM | Activity [2]: inactive

COCC(C)n1nnc2cc(C(=O)O)ccc21 (centres undefined)
EC50 [1]: 200 nM | Activity [2]: inactive

O=C(O)c1ccc2c(c1)nnn2Cc1cc(F)cc(F)c1
EC50 [1]: > 10000 nM | Activity [2]: inactive

Cc1nc2cc(C(=O)O)ccc2n1C(C)C
Log EC50 [1]: inactive | Activity [2]: inactive

O=C(O)c1ccc2c(c1)nnn2C1CCC1
EC50 [1]: 3090 nM | Activity [2]: inactive

C=CCn1nnc2cc(C(=O)O)ccc21
Log EC50 [1]: inactive | Activity [2]: inactive

CC(C)(C)n1nnc2cc(C(=O)O)ccc21
EC50 [1]: 257 nM | Activity [2]: inactive

CCSCCn1nnc2cc(C(=O)O)ccc21
EC50 [1]: 302 nM | Activity [2]: inactive

CC(C)n1cnc2cc(C(=O)O)ccc21
EC50 [1]: 3390 nM | Activity [2]: inactive

Cn1nnc2cc(C(=O)O)ccc21
EC50 [1]: 2000 nM | Activity [2]: inactive

O=C(O)c1ccc2c(c1)nnn2Cc1ccccc1
EC50 [1]: 9120 nM | Activity [2]: inactive

O=C(O)c1ccc2c(c1)nnn2C1CCCC1
EC50 [1]: 1100 nM | Activity [2]: inactive

CCCn1nnc2cc(C(=O)O)ccc21
EC50 [1]: 7410 nM | Activity [2]: inactive

CCOCCn1nnc2cc(C(=O)O)ccc21
EC50 [1]: 257 nM | Activity [2]: inactive

COc1cccc(Cn2nnc3cc(C(=O)O)ccc32)c1
EC50 [1]: 5010 nM | Activity [2]: inactive

CCn1nnc2cc(C(=O)O)ccc21
EC50 [1]: 891 nM | Activity [2]: inactive

CC(C)n1nnc2cc(C(=O)O)ccc21
EC50 [1]: 398 nM | Activity [3]: inactive | Activity [2]: inactive

CCCCn1nnc2cc(C(=O)O)ccc21
EC50 [1]: 692 nM | Activity [2]: inactive

O=C(O)c1ccc2c(c1)nnn2C1CCCCC1
EC50 [1]: 5890 nM | Activity [2]: inactive

CCCCCn1nnc2cc(C(=O)O)ccc21
EC50 [1]: 288 nM | Activity [2]: inactive

O=C(O)c1ccc2[nH]nnc2c1
Log EC50 [1]: inactive | Activity [2]: inactive

O=C(O)c1ccc2c(c1)nnn2-c1ccccc1
Log EC50 [1]: inactive | Activity [2]: inactive
